One block for each molecule: values may come before it.
Biological target: T1, recombinant Plk1 protein (Homo sapiens, UniProt P53350)
T1 construct: histidine tag (N); made in house; host or cells: SF9 insect cells
Assay: Plk1 kinase activity inhibition assay (33P-ATP, alpha casein substrate, flash plates)
Assay type: biochemical
Conditions: enzymatic assay, 100 nM Li-ATP, 80 minutes at 30° C.
Description: The inhibition of Plk1 kinase activity can be measured using recombinant Plk1 protein expressed as an N-terminally histidine-tagged protein in SF9 insect cells and alpha casein as substrate. The Plk1 assay is run in 96 well plates by incubating 50 to 100 ng per well recombinant Plk1, 500 ng per well alpha casein (Sigma, # C-6780) as substrate, 10 μl of compound of invention (test compounds were dissolved as 20 mM solutions in dimethylsulfoxide (DMSO) and subsequently diluted), and 100 nM Li-ATP (including ^33P-ATP) in 100 μl of reaction buffer ([…] HEPES, pH 7.5; 3 mM MgCl2; 3 mM MnCl2; 3 μM Na-Orthovanadat; 1 mM DTT; 1 μg/ml PEG 8000) for 80 minutes at 30° C. The reactions are terminated by adding 100 μl stopping buffer (2% H3PO4 for 5 minutes) and are washed 3 times with washing solution (0.9% NaCl). Determining ^33P incorporated into the protein substrate alpha casein, the detection is based on the adhesion of the phosphorylated protein to the surface of scintillator-coated flash plates (Perkin Elmer, USA; #SMP-200). Phosphorylation of alpha casein is measured by counting the radioactivity bound to the plate for 60 sec. using a plate reader (Perkin Elmer, USA; Wallac Microbeta). By this method, the IC50 value of the Plk1 inhibition is determined as described above.

T1 sequence (P53350 whole entry): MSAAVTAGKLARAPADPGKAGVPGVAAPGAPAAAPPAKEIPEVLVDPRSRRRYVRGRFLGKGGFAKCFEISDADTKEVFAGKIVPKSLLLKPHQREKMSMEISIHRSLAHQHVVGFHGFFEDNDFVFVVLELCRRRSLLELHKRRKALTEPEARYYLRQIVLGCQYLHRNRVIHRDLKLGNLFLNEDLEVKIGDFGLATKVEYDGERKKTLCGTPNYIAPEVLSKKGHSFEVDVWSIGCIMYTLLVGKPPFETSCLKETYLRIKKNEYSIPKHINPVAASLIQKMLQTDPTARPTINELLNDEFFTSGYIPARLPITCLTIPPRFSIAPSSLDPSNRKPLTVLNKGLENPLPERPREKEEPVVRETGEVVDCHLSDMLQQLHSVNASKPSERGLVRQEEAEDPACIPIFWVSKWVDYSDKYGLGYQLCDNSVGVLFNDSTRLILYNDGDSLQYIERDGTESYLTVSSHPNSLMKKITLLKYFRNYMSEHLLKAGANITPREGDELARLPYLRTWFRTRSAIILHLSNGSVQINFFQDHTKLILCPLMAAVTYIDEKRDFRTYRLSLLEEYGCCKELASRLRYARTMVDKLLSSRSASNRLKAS

IC50: 100 to 1000 nM
Structure (SMILES): COc1cc2c(ncn2-c2cc(OCc3ccccc3C(F)(F)F)c(C(N)=O)s2)nc1OC [Example 21A, 5-(5,6-Dimethoxy-1H-imidazo[4,5-b]pyridin-1-yl)-3-{[2-(trifluoromethyl)benzyl]oxy}thiophene-2-carboxamide]

IC50: < 10 nM
Structure (SMILES): C[C@@H](Oc1cc(-n2cnc3cnc(CO)cc32)sc1C(N)=O)c1ccccc1Cl [Example 54, 3-[(1R)-1-(2-chlorophenyl)ethoxy]-5-[6-(hydroxymethyl)-1H-imidazo[4,5-c]pyridin-1-yl]thiophene-2-carboxamide]

IC50: < 10 nM
Structure (SMILES): NC(=O)c1sc(-n2cnc3cnc(CO)cc32)cc1O[C@@H](CO)c1ccccc1Cl [Example 146, 3-[(1R)-1-(2-chlorophenyl)-2-hydroxyethoxy]-5-[6-(hydroxymethyl)-1H-imidazo[4,5-c]pyridin-1-yl]thiophene-2-carboxamide]

IC50: 10 to 100 nM
Structure (SMILES): CCC(Oc1cc(-n2cnc3cnc(CN4CCCN(C)CC4)cc32)sc1C(N)=O)c1ccccc1Cl (stereo not shown) [Example 141, 3-{[1-(2-chlorophenyl)propyl]oxy}-5-{6-[(4-methyl-1,4-diazepan-1-yl)methyl]-1H-imidazo[4,5-c]pyridin-1-yl}thiophene-2-carboxamide]

IC50: < 10 nM
Structure (SMILES): C[C@@H](Oc1cc(-n2cnc3cnc(CN4CCN(CCO)CC4)cc32)sc1C(N)=O)c1ccccc1Cl [Example 127, 3-[(1R)-1-(2-chlorophenyl)ethoxy]-5-(6-{[4-(2-hydroxyethyl)piperazin-1-yl]methyl}-1H-imidazo[4,5-c]pyridin-1-yl)thiophene-2-carboxamide]

IC50: 1000 to 10000 nM
Structure (SMILES): CCOc1ccc(OCC)c(COc2cc(-n3cnc4cnc(CO)cc43)sc2C(N)=O)c1 [Example 109, 3-[(2,5-diethoxybenzyl)oxy]-5-[6-(hydroxymethyl)-1H-imidazo[4,5-c]pyridin-1-yl]thiophene-2-carboxamide]

IC50: 10 to 100 nM
Structure (SMILES): NC(=O)c1sc(-n2cnc3cnccc32)cc1OCc1ccccc1F [Example 40, 3-[(2-fluorobenzyl)oxy]-5-(1H-imidazo[4,5-c]pyridin-1-yl)thiophene-2-carboxamide]

IC50: < 10 nM
Structure (SMILES): CN1CCN(Cc2cc3c(cn2)ncn3-c2cc(OCc3ccccc3C(F)(F)F)c(C(N)=O)s2)CC1 [Example 8, 5-{6-[(4-Methylpiperazin-1-yl)methyl]1H-imidazo[4,5-c]pyridin-1-yl}-3-{[2-(trifluoromethyl)benzyl]oxy}thiophene-2-carboxamide]

IC50: < 10 nM
Structure (SMILES): CC(Oc1cc(-n2cnc3cnc(CO)cc32)sc1C(N)=O)c1ccc(C#N)cc1Cl (stereo not shown) [Example 123, 3-[1-(2-chloro-4-cyanophenyl)ethoxy]-5-[6-(hydroxymethyl)-1H-imidazo[4,5-c]pyridin-1-yl]thiophene-2-carboxamide]

IC50: < 10 nM
Structure (SMILES): C[C@@H](Oc1cc(-n2cnc3cnc(CN4CCCN(C)CC4)cc32)sc1C(N)=O)c1ccccc1Cl [Example 129, 3-[(1R)-1-(2-chlorophenyl)ethoxy]-5-{6-[(4-methyl-1,4-diazepan-1-yl)methyl]-1H-imidazo[4,5-c]pyridin-1-yl}thiophene-2-carboxamide]

IC50: 10 to 100 nM
Structure (SMILES): NC(=O)c1sc(-n2cnc3ccncc32)cc1OCc1ccccc1OC(F)(F)F [Example 29, 5-(3H-imidazo[4,5-c]pyridin-3-yl)-3-{[2-(trifluoromethoxy)benzyl]oxy}thiophene-2-carboxamide]

IC50: < 10 nM
Structure (SMILES): NC(=O)c1sc(-n2cnc3cnccc32)cc1OCc1ccccc1OC(F)F [Example 42, 3-{[2-(difluoromethoxy)benzyl]oxy}-5-(1H-imidazo[4,5-c]pyridin-1-yl)thiophene-2-carboxamide]

IC50: 10 to 100 nM
Structure (SMILES): NC(=O)c1sc(-n2cnc3ccncc32)cc1OCc1c(Cl)cccc1Cl [Example 43, 3-[(2,6-dichlorobenzyl)oxy]-5-(3H-imidazo[4,5-c]pyridin-3-yl)thiophene-2-carboxamide]

Further lines, the molecule ahead of its results:

Structure (SMILES): COCCN1CCN(Cc2cc3c(cn2)ncn3-c2cc(O[C@H](C)c3ccccc3C(F)(F)F)c(C(N)=O)s2)CC1 [Example 69, 5-(6-{[4-(2-methoxyethyl)piperazin-1-yl]methyl}-1H-imidazo[4,5-c]pyridin-1-yl)-3-{(1R)-1-[2-(trifluoromethyl)phenyl]ethoxy}thiophene-2-carboxamide]
IC50: < 10 nM

Structure (SMILES): CC(C)CN1CCN(Cc2cc3c(cn2)ncn3-c2cc(O[C@H](C)c3ccccc3C(F)(F)F)c(C(N)=O)s2)CC1 [Example 120, 5-{6-[(4-isobutylpiperazin-1-yl)methyl]-1H-imidazo[4,5-c]pyridin-1-yl}-3-{(1R)-1-[2-(trifluoromethyl)phenyl]ethoxy}thiophene-2-carboxamide]
IC50: < 10 nM

Structure (SMILES): C[C@@H](Oc1cc(-n2cnc3cnc(CN4CCN(C(N)=O)CC4)cc32)sc1C(N)=O)c1ccccc1C(F)(F)F [Example 67, 4-{[1-(5-carbamoyl-4-{(1R)-1-[2-(trifluoromethyl)phenyl]ethoxy}-2-thienyl)-1H-imidazo[4,5-c]pyridin-6-yl]methyl}piperazine-1-carboxamide]
IC50: < 10 nM

Structure (SMILES): CC(c1ccccc1)N1CCN(Cc2cc3c(cn2)ncn3-c2cc(O[C@H](C)c3ccccc3C(F)(F)F)c(C(N)=O)s2)CC1 (stereo partly drawn) [Example 119, 5-(6-{[4-(1-phenylethyl)piperazin-1-yl]methyl}-1H-imidazo[4,5-c]pyridin-1-yl)-3-{(1R)-1-[2-(trifluoromethyl)phenyl]ethoxy}thiophene-2-carboxamide]
IC50: < 10 nM

Structure (SMILES): C[C@@H](Oc1cc(-n2cnc3cnc(CN4CCN(S(=O)(=O)c5ccccc5)CC4)cc32)sc1C(N)=O)c1ccccc1C(F)(F)F [Example 58, 5-(6-{[4-(phenylsulfonyl)piperazin-1-yl]methyl}-1H-imidazo[4,5-c]pyridin-1-yl)-3-{(1R)-1-[2-(trifluoromethyl)phenyl]ethoxy}thiophene-2-carboxamide]
IC50: 10 to 100 nM

Structure (SMILES): C[C@@H](Oc1cc(-n2cnc3cnc(CN4CCOCC4)cc32)sc1C(N)=O)c1ccccc1C(F)(F)F [Example 62, 5-[6-(morpholin-4-ylmethyl)-1H-imidazo[4,5-c]pyridin-1-yl]-3-{(1R)-1-[2-(trifluoromethyl)phenyl]ethoxy}thiophene-2-carboxamide]
IC50: 10 to 100 nM

Structure (SMILES): CCC(Oc1cc(-n2cnc3cnc(CN4CCN(c5ccncc5)CC4)cc32)sc1C(N)=O)c1ccccc1Cl (stereo not shown) [Example 143, 3-{[1-(2-chlorophenyl)propyl]oxy}-5-{6-[(4-pyridin-4-ylpiperazin-1-yl)methyl]-1H-imidazo[4,5-c]pyridin-1-yl}thiophene-2-carboxamide]
IC50: 10 to 100 nM

Structure (SMILES): C[C@@H](Oc1cc(-n2cnc3cnc(CNCCN4CCOCC4)cc32)sc1C(N)=O)c1ccccc1C(F)(F)F [Example 147, 5-(6-{[(2-morpholin-4-ylethyl)amino]methyl}-1H-imidazo[4,5-c]pyridin-1-yl)-3-{(1R)-1-[2-(trifluoromethyl)phenyl]ethoxy}thiophene-2-carboxamide]
IC50: 10 to 100 nM

Structure (SMILES): C[C@@H](Oc1cc(-n2cnc3cnc(CNC4CCN(C)CC4)cc32)sc1C(N)=O)c1ccccc1C(F)(F)F [Example 73, 5-(6-{[(1-methylpiperidin-4-yl)amino]methyl}-1H-imidazo[4,5-c]pyridin-1-yl)-3-{(1R)-1-[2-(trifluoromethyl)phenyl]ethoxy}thiophene-2-carboxamide]
IC50: < 10 nM

Structure (SMILES): C[C@@H](Oc1cc(-n2cnc3cnc(CN4CCN(S(C)(=O)=O)CC4)cc32)sc1C(N)=O)c1ccccc1C(F)(F)F [Example 66, 5-(6-{[4-(methylsulfonyl)piperazin-1-yl]methyl}-1H-imidazo[4,5-c]pyridin-1-yl)-3-{(1R)-1-[2-(trifluoromethyl)phenyl]ethoxy}thiophene-2-carboxamide]
IC50: < 10 nM

Structure (SMILES): C[C@@H](Oc1cc(-n2cnc3cnc(CN4CCN(CC(=O)N5CCOCC5)CC4)cc32)sc1C(N)=O)c1ccccc1C(F)(F)F [Example 124, 5-(6-{[4-(2-morpholin-4-yl-2-oxoethyl)piperazin-1-yl]methyl}-1H-imidazo[4,5-c]pyridin-1-yl)-3-{(1R)-1-[2-(trifluoromethyl)phenyl]ethoxy}thiophene-2-carboxamide]
IC50: 10 to 100 nM

Structure (SMILES): CC(Oc1cc(-n2cnc3ccncc32)sc1C(N)=O)c1ccccc1Cl (stereo not shown) [Example 12, 3-[1-(2-Chlorophenyl)ethoxy]-5-(3H-imidazo[4,5-c]pyridin-3-yl)thio-phene-2-carboxamide]
IC50: < 10 nM

Structure (SMILES): Cc1ccccc1C(C)Oc1cc(-n2cnc3cnc(CN4CCN(C(C)C)CC4)cc32)sc1C(N)=O (stereo not shown) [Example 149, 5-{6-[(4-isopropylpiperazin-1-yl)methyl]-1H-imidazo[4,5-c]pyridin-1-yl}-3-[1-(2-methylphenyl)ethoxy]thiophene-2-carboxamide]
IC50: 10 to 100 nM

Structure (SMILES): CC(Oc1cc(-n2cnc3cnccc32)sc1C(N)=O)c1ccccc1Cl (stereo not shown) [Example 15, 3-[1-(2-Chlorophenyl)ethoxy]-5-(1H-imidazo[4,5-c]pyridin-1-yl)thio-phene-2-carboxamide]
IC50: 10 to 100 nM

Structure (SMILES): CCC(Oc1cc(-n2cnc3cnc(CN4CCN(C(=O)N(C)C)CC4)cc32)sc1C(N)=O)c1ccccc1Cl (stereo not shown) [Example 137, 4-{[1-(5-carbamoyl-4-{[1-(2-chlorophenyl)propyl]oxy}-2-thienyl)-1H-imidazo[4,5-c]pyridin-6-yl]methyl}-N,N-dimethylpiperazine-1-carboxamide]
IC50: 10 to 100 nM
